# US20170190671A1, “BIS(ARYL)CATECHOL DERIVATIVES AS HERBICIDES” (E I DU PONT DE NEMOURS AND COMPANY, priority 2014, published 2017)
# How the values were obtained:
# Test in all cases: Test C preemergence
# Assay type in all cases: in vivo
# soybean (Glycine max) = conditions: Glycine max, pre-emergence, preemergence, scale 0 to 100, read-out: Plant response rating, Soybean
# In short: (§1)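 Seeds sown in a loam soil and sand blend were treated preemergence; plants in peat-moss/vermiculite medium were sprayed at the 1- to 4-leaf stage (2-18 cm). Chemicals were in a non-phytotoxic surfactant-containing solvent. After 13 to 15 days in a greenhouse, injury was visually rated against controls on a 0-100 scale.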
# [1] = test system: blackgrass (Alopecurus myosuroides); conditions: Alopecurus myosuroides, pre-emergence, 336 h, scale 0 to 100, read-out: Plant response rating, Blackgrass
# In short: as §1
# [2] = test system: large (Lg) crabgrass (Digitaria sanguinalis); conditions: Digitaria sanguinalis, pre-emergence, 336 h, scale 0 to 100, read-out: Plant response rating, Crabgrass, Large
# In short: as §1
# [3] = test system: barnyardgrass (Echinochloa crus-galli); conditions: Echinochloa crus-galli, pre-emergence, read-out: Plant response rating, Barnyardgrass
# In short: as §1
# [4] = test system: winter wheat (Triticum aestivum); conditions: Triticum aestivum, pre-emergence, 336 h, scale 0 to 100, read-out: Plant response rating, Wheat
# In short: as §1
# [5] = test system: velvetleaf (Abutilon theophrasti); conditions: Abutilon theophrasti, pre-emergence, scale 0 to 100, read-out: Plant response rating, Velvetleaf
# In short: as §1
# [6] = test system: morningglory (Ipomoea coccinea); conditions: Ipomoea, pre-emergence, 336 h, scale 0 to 100, read-out: Plant response rating, Morningglory
# In short: as §1
# [7] = test system: oilseed rape (Brassica napus); conditions: Brassica napus, pre-emergence, preemergence, scale 0 to 100, read-out: Plant response rating, Oilseed Rape
# In short: as §1
# [8] = test system: lambsquarters (Chenopodium album); conditions: Chenopodium album, pre-emergence, 336 h, scale 0 to 100, read-out: Plant response rating, Lambsquarters
# In short: as §1
# [9] = test system: pigweed (Amaranthus retroflexus); conditions: Amaranthus retroflexus, pre-emergence, 336 h, scale 0 to 100, read-out: Plant response rating, Pigweed
# In short: as §1
# [10] = test system: ragweed (common ragweed, Ambrosia elatior); conditions: Ambrosia artemisiifolia, pre-emergence, 336 h, preemergence, scale 0 to 100, read-out: Plant response rating, Ragweed
# In short: as §1
# [11] = test system: yellow nutsedge (Cyperus esculentus); conditions: Cyperus, pre-emergence, 336 h, scale 0 to 100, read-out: Plant response rating, Nutsedge, Yellow
# In short: as §1
# corn (Zea mays) = conditions: Zea mays, pre-emergence, 336 h, scale 0 to 100
# In short: as §1
# [12] = test system: giant foxtail (Setaria faberii); conditions: Setaria faberi, pre-emergence, 336 h, scale 0 to 100, read-out: Plant response rating, Foxtail, Giant
# In short: as §1
# [13] = test system: galium (catchweed bedstraw, Galium aparine); conditions: Galium, pre-emergence, 336 h, preemergence, scale 0 to 100, read-out: Plant response rating, Galium
# In short: as §1
# [14] = test system: johnsongrass (Sorghum halepense); conditions: Sorghum halepense, pre-emergence, 336 h, scale 0 to 100, read-out: Plant response rating, Johnsongrass
# In short: as §1
smiles,measurement,setting,value
"N#Cc1cccc(Oc2ncc(Br)cn2)c1Oc1ncc(Cl)cn1 [Compound 5, 3-[(5-bromo-2-pyrimidinyl)oxy]-2-[(5-chloro-2-pyrimidinyl)oxy]benzonitrile]",plant injury at 31 g/ha,soybean (Glycine max); 31 g ai/ha,45%
same,plant injury at 62 g/ha,soybean (Glycine max); 62 g ai/ha,65%
same,plant injury at 125 g/ha,soybean (Glycine max); 125 g ai/ha,85%
same,pest or weed control at 31 g/ha,"[1]; 31 g ai/ha, preemergence",30%
same,pest or weed control at 62 g/ha,"[1]; 62 g ai/ha, preemergence",40%
same,pest or weed control at 125 g/ha,"[1]; 125 g ai/ha, preemergence",70%
same,pest or weed control at 16 g/ha,"[1]; Preemergence, 16 g ai/ha",10%
same,pest or weed control at 31 g/ha,"[2]; 31 g ai/ha, preemergence",98%
same,pest or weed control at 62 g/ha,"[2]; 62 g ai/ha, preemergence",100%
same,pest or weed control at 125 g/ha,"[2]; 125 g ai/ha, preemergence",100%
same,pest or weed control at 16 g/ha,"[2]; Preemergence, 16 g ai/ha",70%
same,pest or weed control at 31 g/ha,"[3]; 31 g ai/ha, preemergence, scale 0 to 100",60%
same,pest or weed control at 62 g/ha,"[3]; 62 g ai/ha, preemergence, scale 0 to 100",85%
same,pest or weed control at 125 g/ha,"[3]; 125 g ai/ha, preemergence, scale 0 to 100",98%
same,pest or weed control at 16 g/ha,"[3]; Preemergence, 16 g ai/ha, scale 0 to 100 (0 no effect, 100 complete control)",20%
same,plant injury at 31 g/ha,"[4]; 31 g ai/ha, preemergence",0%
same,plant injury at 62 g/ha,"[4]; 62 g ai/ha, preemergence",5%
same,plant injury at 125 g/ha,"[4]; 125 g ai/ha, preemergence",35%
same,plant injury at 16 g/ha,"[4]; Preemergence, 16 g ai/ha",0%
same,pest or weed control at 31 g/ha,"[5]; 31 g ai/ha, preemergence",90%
same,pest or weed control at 62 g/ha,"[5]; 62 g ai/ha, preemergence",100%
same,pest or weed control at 125 g/ha,"[5]; 125 g ai/ha, preemergence",100%
same,pest or weed control at 16 g/ha,"[5]; Preemergence, 16 g ai/ha",60%
same,pest or weed control at 31 g/ha,"[6]; 31 g ai/ha, preemergence",60%
same,pest or weed control at 62 g/ha,"[6]; 62 g ai/ha, preemergence",80%
same,pest or weed control at 125 g/ha,"[6]; 125 g ai/ha, preemergence",95%
same,pest or weed control at 16 g/ha,"[6]; Preemergence, 16 g ai/ha",30%
same,plant injury at 31 g/ha,[7]; 31 g ai/ha,70%
same,plant injury at 62 g/ha,[7]; 62 g ai/ha,98%
same,plant injury at 125 g/ha,[7]; 125 g ai/ha,100%
same,pest or weed control at 31 g/ha,"[8]; 31 g ai/ha, preemergence",100%
same,pest or weed control at 62 g/ha,"[8]; 62 g ai/ha, preemergence",100%
same,pest or weed control at 125 g/ha,"[8]; 125 g ai/ha, preemergence",100%
same,pest or weed control at 16 g/ha,"[8]; Preemergence, 16 g ai/ha",80%
same,pest or weed control at 31 g/ha,"[9]; 31 g ai/ha, preemergence",100%
same,pest or weed control at 62 g/ha,"[9]; 62 g ai/ha, preemergence",100%
same,pest or weed control at 125 g/ha,"[9]; 125 g ai/ha, preemergence",100%
same,pest or weed control at 16 g/ha,"[9]; Preemergence, 16 g ai/ha",100%
same,pest or weed control at 31 g/ha,[10]; 31 g ai/ha,20%
same,pest or weed control at 62 g/ha,[10]; 62 g ai/ha,80%
same,pest or weed control at 125 g/ha,[10]; 125 g ai/ha,100%
same,pest or weed control at 31 g/ha,"[11]; 31 g ai/ha, preemergence",5%
same,pest or weed control at 62 g/ha,"[11]; 62 g ai/ha, preemergence",25%
same,pest or weed control at 125 g/ha,"[11]; 125 g ai/ha, preemergence",60%
same,pest or weed control at 16 g/ha,"[11]; Preemergence, 16 g ai/ha",0%
same,"Corn plant response rating (crop injury, 0 = no effect, 100 = complete kill) at 31 g/ha","corn (Zea mays); 31 g ai/ha, preemergence",25%
same,"Corn plant response rating (crop injury, 0 = no effect, 100 = complete kill) at 62 g/ha","corn (Zea mays); 62 g ai/ha, preemergence",60%
same,"Corn plant response rating (crop injury, 0 = no effect, 100 = complete kill) at 125 g/ha","corn (Zea mays); 125 g ai/ha, preemergence",75%
same,"Corn plant response rating (crop injury, 0 = no effect, 100 = complete kill) at 16 g/ha","corn (Zea mays); Preemergence, 16 g ai/ha",5%
same,pest or weed control at 31 g/ha,"[12]; 31 g ai/ha, preemergence",80%
same,pest or weed control at 62 g/ha,"[12]; 62 g ai/ha, preemergence",100%
same,pest or weed control at 125 g/ha,"[12]; 125 g ai/ha, preemergence",100%
same,pest or weed control at 16 g/ha,"[12]; Preemergence, 16 g ai/ha",30%
same,pest or weed control at 31 g/ha,[13]; 31 g ai/ha,50%
same,pest or weed control at 62 g/ha,[13]; 62 g ai/ha,100%
same,pest or weed control at 125 g/ha,[13]; 125 g ai/ha,100%
same,pest or weed control at 31 g/ha,"[14]; 31 g ai/ha, preemergence",40%
same,pest or weed control at 62 g/ha,"[14]; 62 g ai/ha, preemergence",70%
same,pest or weed control at 125 g/ha,"[14]; 125 g ai/ha, preemergence",80%
same,pest or weed control at 16 g/ha,"[14]; Preemergence, 16 g ai/ha",0%
